In publication PMC6086040, “Real-time tracking of complex ubiquitination cascades using a fluorescent confocal on-bead assay” (BMC Biology, 2018) one finds IC50 data, which are given here for two compounds.

Common to all, as to type: biochemical
Experiment [1] addresses T1, Ube1 (Homo sapiens, UniProt P22314).
T1 construct: gene UBA1
T1 sequence (P22314 2-1058): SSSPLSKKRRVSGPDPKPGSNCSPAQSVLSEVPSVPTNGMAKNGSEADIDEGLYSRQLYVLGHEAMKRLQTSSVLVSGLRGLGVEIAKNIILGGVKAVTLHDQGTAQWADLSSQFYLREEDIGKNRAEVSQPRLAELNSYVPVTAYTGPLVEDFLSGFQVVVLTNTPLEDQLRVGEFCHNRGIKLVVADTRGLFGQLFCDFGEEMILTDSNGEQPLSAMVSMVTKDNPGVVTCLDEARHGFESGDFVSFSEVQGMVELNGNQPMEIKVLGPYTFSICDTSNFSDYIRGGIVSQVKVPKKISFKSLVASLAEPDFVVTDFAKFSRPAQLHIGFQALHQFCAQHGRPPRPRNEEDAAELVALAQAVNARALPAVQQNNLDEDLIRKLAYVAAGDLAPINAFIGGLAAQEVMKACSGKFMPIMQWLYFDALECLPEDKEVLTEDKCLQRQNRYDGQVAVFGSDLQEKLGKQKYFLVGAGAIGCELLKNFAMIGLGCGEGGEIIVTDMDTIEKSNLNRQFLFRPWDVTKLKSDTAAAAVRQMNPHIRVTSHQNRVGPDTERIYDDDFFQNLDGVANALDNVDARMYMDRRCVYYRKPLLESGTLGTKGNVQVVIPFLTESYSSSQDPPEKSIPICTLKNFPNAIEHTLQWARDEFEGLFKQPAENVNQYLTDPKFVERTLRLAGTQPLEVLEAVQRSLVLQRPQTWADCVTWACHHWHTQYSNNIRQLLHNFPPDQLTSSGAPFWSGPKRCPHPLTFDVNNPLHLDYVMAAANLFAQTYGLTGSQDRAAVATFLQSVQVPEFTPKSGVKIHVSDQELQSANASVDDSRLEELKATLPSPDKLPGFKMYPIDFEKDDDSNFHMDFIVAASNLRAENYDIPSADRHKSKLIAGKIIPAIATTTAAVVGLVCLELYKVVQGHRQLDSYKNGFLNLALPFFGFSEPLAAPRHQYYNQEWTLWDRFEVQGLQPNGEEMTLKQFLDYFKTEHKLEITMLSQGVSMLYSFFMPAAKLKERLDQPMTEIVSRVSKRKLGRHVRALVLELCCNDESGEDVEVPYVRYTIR
Briefly: Gel-based Ube1~Ub thioester assay with purified Ube1; also on-bead UPS-CONA with Ube1 alone (IC50 below […]).

Another experiment deals with T2, Ube2L3 (Homo sapiens, UniProt P68036).
T2 construct: eGFP-Ube2L3
T2 sequence (P68036 whole entry, one chain of several): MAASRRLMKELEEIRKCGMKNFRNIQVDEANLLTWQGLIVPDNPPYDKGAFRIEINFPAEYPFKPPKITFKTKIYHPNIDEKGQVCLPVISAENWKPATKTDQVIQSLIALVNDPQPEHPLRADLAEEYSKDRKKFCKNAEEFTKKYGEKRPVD
Briefly: On-bead UPS-CONA, concentration-dependent inhibition on eGFP-Ube2L3.

The target in experiment [2] is T1, Ube1. Briefly: Gel-based Ube1~Ub thioester assay and on-bead UPS-CONA with Ube1 alone.

A word on the IC50: it is the concentration that inhibits the measured activity by half. High values mean a need for much substance, low ones inhibition by little substance. On to `Cc1ccc(S(=O)(=O)/C=C/C#N)cc1` [BAY 11-7082], for which the half-inhibitory concentration (IC50) is ~4.6 µM at Ube1 [1] and 7.5 µM against Ube2L3.
In turn, `CCc1ccc(/C=C/C(=O)Nc2ccc(C(C)=O)cc2)o1` [heclin] displayed an IC50 on Ube1 [2] of 16 µM.
